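In this assay, cells in 96-well plates receive the compound at five concentrations for 48 hours. Endpoints are linearly interpolated between the surrounding concentrations. At the GI50, growth is halved. TGI marks complete inhibition of growth.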
Assays:
Assay in all cases: DTP human tumour cell line panel, 48 h
786-0 renal = system: 786-0 renal
A498 renal = system: A498 renal
A549 NSCLC = system: A549 NSCLC
ACHN renal = system: ACHN renal
BT-549 breast = system: BT-549 breast
CAKI-1 renal = system: CAKI-1 renal
CCRF-CEM leukemia = system: CCRF-CEM leukemia
COLO 205 colon = system: COLO 205 colon
DU-145 prostate = system: DU-145 prostate
EKVX NSCLC = system: EKVX NSCLC
HCC-2998 colon = system: HCC-2998 colon
HCT-116 colon = system: HCT-116 colon
HCT-15 colon = system: HCT-15 colon
HL-60(TB) leukemia = system: HL-60(TB) leukemia
HOP-62 NSCLC = system: HOP-62 NSCLC
HOP-92 NSCLC = system: HOP-92 NSCLC
HS 578T breast = system: HS 578T breast
HT29 colon = system: HT29 colon
IGROV1 ovarian = system: IGROV1 ovarian
K-562 leukemia = system: K-562 leukemia
KM12 colon = system: KM12 colon
LOX IMVI melanoma = system: LOX IMVI melanoma
M14 melanoma = system: M14 melanoma
MALME-3M melanoma = system: MALME-3M melanoma
MCF7 breast = system: MCF7 breast
MDA-MB-231 breast = system: MDA-MB-231 breast
MDA-MB-435 = system: MDA-MB-435
MOLT-4 leukemia = system: MOLT-4 leukemia
NCI-H226 lung = system: NCI-H226 lung

COc1ccc(-c2cnoc2-c2ccc(OC)cc2O)cc1
GI50 (786-0 renal): 5.31 µM | TGI (786-0 renal): 37.5 µM | GI50 (A498 renal): 1.78 µM | TGI (A498 renal): 8.49 µM | GI50 (A549 NSCLC): 4.08 µM | TGI (A549 NSCLC): 69.3 µM | GI50 (ACHN renal): 9.17 µM | TGI (ACHN renal): > 100 µM | GI50 (BT-549 breast): 9.73 µM | TGI (BT-549 breast): 35.3 µM | GI50 (CAKI-1 renal): 4.31 µM | TGI (CAKI-1 renal): > 100 µM | GI50 (CCRF-CEM leukemia): 3.09 µM | TGI (CCRF-CEM leukemia): > 100 µM | GI50 (COLO 205 colon): 9.5 µM | TGI (COLO 205 colon): 30.4 µM | GI50 (DU-145 prostate): 3.85 µM | TGI (DU-145 prostate): 15.8 µM | GI50 (EKVX NSCLC): 15.5 µM | TGI (EKVX NSCLC): > 100 µM | GI50 (HCC-2998 colon): 5.27 µM | TGI (HCC-2998 colon): 29.8 µM | GI50 (HCT-116 colon): 2.82 µM | TGI (HCT-116 colon): 16.5 µM | GI50 (HCT-15 colon): 2.56 µM | TGI (HCT-15 colon): > 100 µM | GI50 (HL-60(TB) leukemia): 2.93 µM | TGI (HL-60(TB) leukemia): 16.8 µM | GI50 (HOP-62 NSCLC): 4.6 µM | TGI (HOP-62 NSCLC): 35.7 µM | GI50 (HOP-92 NSCLC): 2.42 µM | TGI (HOP-92 NSCLC): 27.4 µM | GI50 (HS 578T breast): 1.9 µM | TGI (HS 578T breast): 6.69 µM | GI50 (HT29 colon): 3.54 µM | TGI (HT29 colon): 15.3 µM | GI50 (IGROV1 ovarian): 7.54 µM | TGI (IGROV1 ovarian): 92.1 µM | GI50 (K-562 leukemia): 0.534 µM | TGI (K-562 leukemia): > 100 µM | GI50 (KM12 colon): 2.66 µM | TGI (KM12 colon): 15 µM | GI50 (LOX IMVI melanoma): 6.9 µM | TGI (LOX IMVI melanoma): 26.2 µM | GI50 (M14 melanoma): 2.69 µM | TGI (M14 melanoma): 15 µM | GI50 (MALME-3M melanoma): 14.1 µM | TGI (MALME-3M melanoma): 49.5 µM | GI50 (MCF7 breast): 2.85 µM | TGI (MCF7 breast): 85.2 µM | GI50 (MDA-MB-231 breast): 3.32 µM | TGI (MDA-MB-231 breast): 27.6 µM | GI50 (MDA-MB-435): 0.314 µM | TGI (MDA-MB-435): 1.6 µM | GI50 (MOLT-4 leukemia): 3.36 µM | TGI (MOLT-4 leukemia): 22.9 µM | GI50 (NCI-H226 lung): 12.8 µM
